Laboratory results published in patent US9320723B2, “Methods of treating thyroid eye disease” (University of Rochester, priority 2010, dated 2016).

Legend:
[1] = test system: human orbital fibroblasts; test: qRT-PCR of HAS mRNA after TGF-β1 with or without Pio or Rosi; format: cell-based; conditions: 2 ng/ml TGF-β1, 6 hours
From the text: RNA was isolated from orbital fibroblast strains using the RNeasy Mini kit according to the manufacturer's protocol (Qiagen, Valencia, Calif.) and reverse transcripted to cDNA using iScript cDNA synthesis kit (Bio-Rad, Hercules, Calif.). Primers for human HAS1, 2, 3 and 7S as well as qRT-PCR method to detect relative abundance of mRNA are identified supra. Primers for human PPARγ1 (NM138711) and PPARγ 2 (NM015869) mRNA were 5′-AAAGAAGCCGA-CACTAAACC-3′ (SEQ ID NO:3) (sense), 5′-CTTCCATTACGG-AGAGATCC-3′ (SEQ ID NO:4) (antisense) and, 5′-GCGATTC-CTTCACTGATAC-3′ (SEQ ID NO:5) (sense), 5′-CTTCCATT-ACGGAGAGATCC-3′ (SEQ ID NO:6) (antisense), respectively.

[2] = test system: human orbital fibroblasts; test: Quantitation of secreted, pericellular and intracellular HA by ELISA, TGF-β1 treatment; format: cell-based
Method: Confluent monolayers of orbital fibroblasts were serum starved in 0.5% FBS RPMI-1640 medium for three days and pretreated with different concentrations of Pio or Rosi for 1 hour and then treated with or without 2 ng/ml TGF-β1 for 24 hours. After treatments, an aliquot of culture medium (secreted HA) was removed and centrifuged at 8,000×g at 4° C. for 5 minutes and the supernatant was saved for later analysis. The cells were washed twice with PBS and treated with 0.25% trypsin-EDTA solution (GIBCO, Invitrogen) at 37° C. for 5 minutes, the reaction was stopped by addition of culture medium and cell number was determined using a hemocytometer. The cells were then centrifuged and the supernatant was collected and incubated at 100° C. for 10 minutes to inactivate trypsin activity. This supernatant was saved for pericellular HA detection. The cell pellet was washed with PBS once and digested with 120 μg/ml proteinase K in 0.1% SDS/0.1 M Tris-HCl (pH 7.6) at 37° C. for 1 hour, and proteinase K was inactivated by incubation at 100° C. for 10 min. The cell lysate was centrifuged and supernatant analyzed for intracellular HA.
The amount of HA in each extract (secreted HA, pericellular HA and intracellular HA) was measured by ELISA based on the specific interaction of HA with HA binding protein (HABP). The HA detection kit was purchased from R&D system (Minneapolis, Minn.). Briefly, diluted samples were incubated in HABP-coated microwells, allowing HA present in samples to react with the immobilized HABP. After extensive washing, biotinylated HABP was added to the microwells to form complexes with bound HA. Following another round of washing, streptavidin conjugated horseradish peroxidase was added. After a brief incubation period and washing, chromogenic substrate was added and HA levels were determined using a Varioskan Flash plate reader (Thermo Fisher Scientific, Milford, Mass.). A fraction of the samples were pretreated with Streptomyces hyaluronidase (2 U/ml at 37° C. for 2 hour) before subjected to the ELISA assay as a negative control. Furthermore, an additional 50 ng/ml (final concentration) of free soluble HA was added to a fraction of the cell lysate samples to confirm that there are no inhibitory factors present and that the assays show the expected additivity when a known amount of exogenous HA is included.

[3] = test system: human peripheral blood T cells adhering to orbital fibroblasts; test: T cell adhesion assay; format: cell-based; conditions: fibroblasts treated with 2 ng/ml TGF-β1, 24 hours
Method: Confluent orbital fibroblasts in a 96-well plate were serum starved and incubated with different concentrations of Pio or Rosi treated with or without 2 ng/ml TGF1 for 24 hours. In some cultures, orbital fibroblasts were treated with Streptomyces hyaluronidase (100 mU/ml at 37° C. for 1 hour) prior to the adhesion assay to deplete endogenous HA. Adhesion Test. Immediately before the adhesion assay, the conditioned medium of orbital fibroblasts was removed to eliminate treatments and secreted ECM. 1×10^5/well of Calcein AM labeled T cells were added to a 96-well plate with a confluent orbital fibroblast monolayer and allowed to adhere for 90 min at 4° C. as previously described. Plates were washed three times with the addition of 200 ul of PBS followed by plate inversion and gentle tapping to remove the wash solution. Fluorescence was measured with an excitation of 485 nm and detection of 535 nm, in a Varioskan Flash plate reader (Thermo Electron Corporation).

[4] = test system: orbital fibroblasts; test: Immunofluorescence staining of HA with biotinylated HABP; format: cell-based, human; conditions: 2 ng/ml TGF-β1, 24 hours
Method: Orbital fibroblasts were cultured in 8-chamber slides (BD REF354108) and fixed in room temperature 3% paraformaldehyde in PBS and stained with 1 μg/ml biotinylated HABP (Seikagaku, Cape Cod) followed by Cy3-conjugated streptavidin (Jackson laboratories, West Grove, Pa.). F-actin was stained with Phalloidin (Molecular Probes). In some cultures, orbital fibroblasts were treated with Streptomyces hyaluronidase prior to staining T cells were stained with an anti-CD3 monoclonal antibody (clone UCHT, SouthernBiotech, Birmingham, Ala.) followed by a goat anti-mouse antibody labeled with Alexa-488 (Molecular Probes). DAPI (10 μg/ml, Anaspec, San Jose, Calif.) was used for nuclear staining.

[5] = test system: human orbital fibroblasts; test: qRT-PCR of HAS mRNA after PGD2 or BW245C; format: cell-based; conditions: 5 μM PGD2, 2 hours
Method: (§1) RNA was isolated from orbital fibroblasts or T cells using an RNeasy Mini kit (Qiagen). RNA was reverse transcribed to cDNA using iScript cDNA synthesis kit (Bio-Rad) and diluted 5-fold in RNase-free H2O. Forward and reverse primers for each gene are shown in Table I. RT-PCR: The PCR reaction was performed using Qiagen Fast Cycling PCR kit for 30 cycles in a Bio-Rad thermal cycler. The PCR product was visualized on a 5% acrylamide gel stained with ethidium bromide. Amplifications without reverse transcriptase were carried out as negative controls. qRT-PCR: qRT-PCR was performed in a Bio-Rad iCycler containing B-R SYBR Green SuperMix for IQ (Quanta Biosciences, Gaithersburg, Md.). Efficiency of the amplification was determined to be >90%.
(§2) Amplification of 7S ribosomal RNA was carried out for each cDNA (in triplicate) for normalization. Threshold cycle number (Ct) of amplification in each sample was determined by Bio-Rad software and the relative mRNA abundance was calculated as the Ct for amplification of a gene-specific cDNA minus average Ct for 7S, expressed as a power of 2; i.e., 2^ΔCt.

[6] = test system: human orbital fibroblasts; conditions: previously reported (Feldon et al. 2006); cited from earlier work
[7] = test system: orbital fibroblast strains OF1 and OF2; test: qRT-PCR of hyaluronidase mRNA (HYAL1-3); format: cell-based, human; conditions: 5 μM PGD2, 4 hours
Method: as §1, §2

[8] = test system: orbital fibroblasts; test: Measurement of intracellular cAMP (TR-FRET immunoassay); format: cell-based, human; conditions: PGD2 5 μM, BW245C 10 μM, up to 60 minutes
Method: cAMP levels were quantified using a time-resolved fluorescence resonance energy transfer (TR-FRET) immunoassay from Perkin Elmer (Waltham, Mass.) according to the manufacturer's protocol. Briefly, orbital fibroblasts were detached with a non-enzymatic cell dissociation solution (Versene, Invitrogen) and re-suspended in Stimulation Buffer (pH 7.4; 1×HBSS buffer containing 5 mmol/L HEPES buffer and 0.01%-0.1% BSA) containing 0.5 mM IBMX and labeled with the Alexa Fluor® 647-labeled anti-cAMP antibody. Finally, the cells were incubated with drugs at the indicated times. Following addition of the detection buffer, the amount of cAMP signal was measured.

[9] = test system: human orbital fibroblasts; test: HA ELISA of culture medium of orbital fibroblasts treated with prostaglandins or drugs; format: cell-based; conditions: 18 hours, strains OF1 and OF2
From the text: Orbital fibroblasts: Primary orbital fibroblasts were isolated from TED patients undergoing orbital decompression surgery. The protocols for orbital biopsy and blood sample, described below, were approved by the Internal Review Board and informed, written consent was obtained from all patients. […] Fibroblasts were characterized by their adherent morphology, expression of vimentin and types I and III collagen and absence of CD45, factor VIII or cytokeratin. Fibroblasts were used at the earliest passage possible (between passages 4 to 10). Human T cells: Lymphocytes were isolated from 60 ml of peripheral blood obtained during orbital decompression surgery. Whole blood was separated over a Ficoll-Paque Plus Gradient (Amersham Biosciences, Piscataway, N.J.) to obtain peripheral blood mononuclear cells. T cells were enriched using CD3/CD28 T cell Expander beads (Invitogen). […] After that, 50 U/ml of recombinant interleukin-2 (rIL-2) was added to the culture and incubated for another 2-3 days. On day 5, cells were diluted to a concentration of 0.5×10^6 cells/ml in medium containing 50 U/ml rIL-2 and incubated for an additional 3-7 days. Cellular purity was assessed using an anti-CD3-PE antibody (BD Biosciences, San Jose, Calif.) and analyzed on a FACSCalibur flow cytometer (BD Biosciences).
Aliquots of culture medium were removed at indicated time points, centrifuged (5 min, 8,000×g at 4° C.) and HA levels quantified by enzyme-linked immunosorbent assay (ELISA) according to the manufacturer's protocol (R&D Systems). Briefly, samples were incubated in HA-binding protein (HABP)-coated microwells, allowing HA in samples to react with the immobilized HABP. After the removal of unbound molecules by washing, biotinylated-HABP was added to the microwells. Following a second wash, streptavidin-conjugated to horseradish peroxidase was added. After the last wash, the chromogenic substrate was added and HA levels were determined using a Varioskan Flash plate reader (Thermo Fisher Scientific, Milford, Mass.).

[10] = test system: human orbital fibroblasts (OF1 and OF2); test: Agarose gel electrophoresis of HA in conditioned media; format: cell-based; conditions: 5 μM PGD2, 18 hours
Method: Fibroblasts were cultured to confluence in 10 cm^2 dishes in RPMI containing 10% FBS, followed by RPMI with 2% FBS for 3 days. Fibroblasts were then treated with 5 μM PGD2 or control (DMSO) for 18 hours. Cell culture supernatant was centrifuged (5 min at 8,000×g at 4° C.) and half of the sample digested with 1 TRU/ml Streptomyces hyaluronidase (Sigma) at 37° C. for 4 hours; the remainder of the sample was mock-digested. Following digestion with proteinase K (120 μg/ml) (Qiagen, Valencia, Calif.) at 37° C. for 4 hours, the samples were concentrated using Vivaspin 10,000 Da cut-off ultrafiltration spin column (Sartorius Stedim Biotech, Goettingen, Germany), washed with PBS and analyzed by 1% agarose electrophoresis. Select-HA HiLadder (Hyalose LLC, Oklahoma City, Okla.) and blue dextran (Sigma; molecular weight 2×10^6 Da) were also run as standards. The gel was stained with 0.005% Stains-All (Sigma) in 50% ethanol overnight at room temperature before being scanned on an HP scanner.

[11] = test system: orbital fibroblasts co-cultured with HMC-1 cells; test: Co-culture of HMC-1 mast cells with orbital fibroblasts, HA ELISA; format: cell-based, human; conditions: HMC-1 cells pretreated with HQL-79, ratio 20:1, compared to vehicle
Method: HMC-1 mast cells were allowed to proliferate in Iscove's Modified Dulbecco's Medium (IMDM) enriched with 5% FBS. Co-cultures were initiated by introducing HMC-1 cells to confluent cultures of fibroblasts as previously described (24). Mast cells were washed with RPMI-1640 medium (0.5% FBS) once before addition to the fibroblasts (1:1 ratio, unless otherwise specified). After 4 hours, the media and HMC-1 cells were removed by gently rinsing in PBS and fresh RPMI-1640 medium (0.5% FBS) was used to cover the cells. Alternatively, fibroblasts and mast cells were co-cultured in a transwell system (0.4 μm; Greiner Bio-one, New York, N.Y.) with fibroblasts being cultured on the bottom and the mast cells in the top chamber. The ratio of mast cells to fibroblasts was varied from 5:1 to 20:1.
Aliquots of culture medium were removed at indicated time points, centrifuged (5 min, 8,000×g at 4° C.) and HA levels quantified by enzyme-linked immunosorbent assay (ELISA) according to the manufacturer's protocol (R&D Systems). Briefly, samples were incubated in HA-binding protein (HABP)-coated microwells, allowing HA in samples to react with the immobilized HABP. […] After the last wash, the chromogenic substrate was added and HA levels were determined using a Varioskan Flash plate reader (Thermo Fisher Scientific, Milford, Mass.).

[12] = test system: HMC-1 cells; test: Measurement of PGD2 produced by mast cells (PGD2-MOX EIA); format: cell-based, human; conditions: HQL-79 100 μM 60 minutes, then A23187
Method: HMC-1 cells (1×10^6/well) were seeded into 6-well plates and cultured in IMDM medium with 5% FBS in the absence or presence of HQL-79 (H-PGDS inhibitor, 100 μM) at 37° C. for 60 minutes. The cells were then washed and resuspended in RPMI 1640 medium with 0.5% FBS. After 2 hours incubation, the cells were stimulated with 10 μM calcium ionophore A23187 for 30 minutes. The culture media were collected and PGD2 in the supernatants was quantified by PGD2-MOX EIA kits (Cayman Chemical).

[13] = 2 ng/ml TGF-β1, 24 hours, strain #1, compared to vehicle

## TGF-β1: Recombinant human TGF-β1 purchased from Calbiochem
[1]
  HAS3 mRNA levels: remained unchanged
  increase of HAS1 mRNA levels: about 50 fold
  increase of HAS2 mRNA levels: ~6 fold
[2]; 2 ng/ml TGF-β1, 24 hours
  intracellular HA levels: had no effect on intracellular HA levels
[2]; [13]
  increase of pericellular HA levels: 8.34±1.33 fold
  increase of secreted HA levels: 12.16±0.15 fold
[2]; TGF-β1 mediated
  share of newly synthesized HA secreted into the ECM: about 70%
[2]; fibroblasts treated with TGF-β1, strain #1
  secreted HA compared with pericellular HA: 2.31±0.36 fold
[3]
  adhesion of T cells to orbital fibroblasts: significantly increased compared to untreated control fibroblasts
[4]
  HA staining (immunofluorescence): HA staining is more pronounced and forms microvillus-like protrusions

## CCCCC[C@H](O)/C=C/[C@H]1C(=O)C[C@H](O)[C@@H]1C/C=C\CCCC(=O)O [PGD2]
[5]
  HAS1, HAS2 and HAS3 mRNA: the mRNA for all three HAS isoforms increased significantly
[5]; compared to time 0
  increase in HAS1 mRNA: 2807±213
[6]
  adipogenesis in human orbital fibroblasts: induce adipogenesis
[7]; strain OF1
  HYAL1, HYAL2 and HYAL3 mRNA: significant induction in HYAL1, HYAL2 and HYAL3 mRNA
[7]; strain OF2
  hyaluronidase mRNA expression: failed to significantly increase hyaluronidase mRNA expression
[8]
  intracellular cAMP production: significantly increased intracellular cAMP production within 15 to 30 minutes
[9]
  concentration yielding the largest induction of HA: 5 µM
[9]; increasing concentrations
  HA synthesis (HA ELISA): significantly increased HA synthesis by both fibroblast strains in a dose-dependant manner
[10]
  HA in conditioned media (agarose gel): increased HA compared with vehicle

## c1ccc(C(OC2CCN(CCCc3nnn[nH]3)CC2)c2ccccc2)cc1 [HQL-79, 4-benzhydryloxy-1-[3-(1H-tetrazol-5-yl)-propyl]-piperidine]
[11]
  production of HA by orbital fibroblasts in transwell co-culture: significantly attenuated the production of HA by orbital fibroblasts
[12]
  level of PGD2 in activated HMC-1 cells: significantly reduced the level of PGD2 in activated HMC-1 cells
